Entries after “also recorded” stand apart in the source; their conditions may differ.
What was measured:
HCT116 p53^+/+ cells = assay: apoptosis by flow cytometry (FITC-Annexin V and propidium iodide), HCT116 p53^+/+; type: cell-based, human; conditions: GI50 and double GI50, 24 hours
Description: Apoptosis was analyzed by flow cytometry using FITC-Annexin V and propidium iodide. The effect of compounds was analyzed after 24 hours treatment using the concentration of GI50 and double GI50. Histograms represent one of two independent experiments; quantification of cells in apoptosis represents the mean±S.E.M. of two independent experiments.

HCT116 p53^+/+ tumors = assay: xenograft mouse model, HCT116 p53^+/+ tumors; type: in vivo, BALB/c mice; conditions: four intraperitoneal injections of 50 mg/kg, vs vehicle, preliminary
Description: FIG. 10 illustrates the antitumor activity of SLMP53-1 in vivo. BALB/c mice, 4-6 weeks old, were implanted subcutaneous xenografts using 1.5×10^6 HCT116 p53^+/+ or HCT116 p53^−/− cells. The treatment was initiated when palpable tumors were established (14 days after the cells were injected), and consisted in 4 intraperitoneal injections (2× per week) of vehicle (control) or 50 mg/kg of SLMP53-1. Xenografts were measured during 24 days. Relative tumor volumes were plotted for control and treated groups by dividing the average tumor volume for each data point by average starting tumor volume.
Currently, the toxicity and antitumor activity of SLMP53-1 are under study in vivo using xenograft mouse models. […] Because p53-null tumors were not suppressed, it was confirmed that SLMP53-1 inhibited the tumor growth in a wt p53-dependent manner.

HCT116 p53^−/− = assay: Western blot of p53-target proteins, PARP cleavage, HCT116 p53^−/−; type: cell-based, human; conditions: 15.5 μM
Description: FIG. 2 illustrates that SLMP53-1 increases the levels of proteins encoded by p53 target genes (MDM2, p21, PUMA and BAX), and leads to PARP cleavage in colon carcinoma cells with wt p53 (HCT116 p53^+/+), but not in colon carcinoma cells without wt p53 (HCT116 p53^−/−). Western blot analysis was performed for human colon carcinoma cells after 16 (B, D, E) and 24 (A, C, F) hours treatment with 15.5 μM of SLMP53-1, 135 nM doxorubicin (DOXO; positive control) or DMSO only. The protein expression levels were evaluated by quantification of Western Blot band intensity (with Bio-Profile Bio-1D++ software) using GAPDH as loading control.

MDA-MB-231 (p53R280K) = assay: SRB growth inhibition assay in MDA-MB-231 breast cancer cells; type: cell-based, human; conditions: Homo sapiens, 48 hours incubation, mean±S.E.M.
Description: Tumor cells were plated at 7.5×10^3 cells/well in 96-well plates and incubated for 24 hours. Cells were then exposed to serial dilutions of SLMP53-1, CP-31398 or PRIMA-1 (from 1.85 to 150 μM). The effect of the compounds was analyzed following 48 hours incubation period, using the sulforhodamine B (SRB) assay. The solvent DMSO corresponding to the maximum concentration used in these assays (0.025%) was included as control. The GI50 value, which is the concentration of compound that causes 50% growth inhibition, was calculated for the tested compounds. Results are the mean±S.E.M. of three independent experiments.

[1] = apparent permeability coefficients; type: in vitro ADME

## C[C@]12OC[C@H](Cc3c[nH]c4ccccc34)N1C(=O)c1ccccc12 [SLMP53-1]
HCT116 p53^+/+ cells
  apoptosis: induces early and late apoptosis; also recorded: apoptotic cell death
HCT116 p53^+/+ tumors
  tumor growth: considerably suppressed
HCT116 p53^−/−
  PARP cleavage: did not induce PARP cleavage
  expression levels of MDM2, p21, PUMA and Bax: did not interfere
MDA-MB-231 (p53R280K)
  GI50: 16.6 ± 4.2 µM
[1]
  apparent permeability coefficients: favorable

Source: patent publication US9732091B2, “Tryptophanol-derived oxazoloisoindolinones: small-molecule P53 activators” (UNIVERSIDADE DO PORTO, priority 2013, dated 2017)
